Results on one molecule are retold here after paper PMC8426238, “Synthesis and preclinical evaluation of [^11C]MTP38 as a novel PET ligand for phosphodiesterase 7 in the brain” (European Journal of Nuclear Medicine and Molecular Imaging, 2021).

One assay has as its target T1, Adenosine A1 (Homo sapiens, UniProt P30542).
T1 construct: purchased Eurofins Panlabs Discovery Services (Taiwan)
In words: off-target screen panel. The assay is classed as binding. The conditions noted are these: Human recombinant, [^3H]DPCPX.

The target of the next assay is T2, Adrenergic α1D (Homo sapiens, UniProt P25100).
T2 construct: purchased Eurofins Panlabs Discovery Services (Taiwan)
In words: off-target screen panel. The assay is classed as binding. Particulars: Human recombinant, [^3H]Prazosin.

Assay [1] concerns Calcium Channel L-Type, Benzothiazepine. Nature of the assay: off-target screen panel. The class given is binding. The conditions noted are these: Rat brain, [^3H]Diltiazem.
The test system of assay [2] is Calcium Channel L-Type, Dihydropyridine. In words: off-target screen panel. Particulars: Rat cerebral cortex, [^3H]Nitrendipine. The class given is binding.
A further assay addresses T3, Dopamine D2S (Homo sapiens, UniProt P14416).
T3 construct: purchased Eurofins Panlabs Discovery Services (Taiwan)
Nature of the assay: off-target screen panel. Particulars: Human recombinant, [^3H]Spiperone. The class given is binding.

The target of the next assay is T4, Dopamine D4.2 (Homo sapiens, UniProt P21917, DEL265-296).
T4 construct: purchased Eurofins Panlabs Discovery Services (Taiwan)
In words: off-target screen panel. The assay is classed as binding. The conditions noted are these: Human recombinant, [^3H]Spiperone.

The test system of the next assay is Glutamate, NMDA, Agonism. In words: off-target screen panel. The class given is binding. The conditions noted are these: Rat cerebral cortex, [^3H]CGP-39653.
The next assay addresses Glutamate, NMDA, Glycine (Rattus norvegicus, UniProt P35439). In words: off-target screen panel. The class given is binding. Particulars: Rat cerebral cortex, [^3H]MDL 105,519.
For the next assay, the target named is T5, Muscarinic M2 (Homo sapiens, UniProt P08172).
T5 construct: purchased Eurofins Panlabs Discovery Services (Taiwan)
Nature of the assay: off-target screen panel. The assay is classed as binding. Particulars: Human recombinant, [^3H]N-Methylscopolamine.

A further assay concerns the target T6, Opiate μ (OP3, MOP) (Homo sapiens, UniProt P35372).
T6 construct: purchased Eurofins Panlabs Discovery Services (Taiwan)
Nature of the assay: off-target screen panel. The assay is classed as binding. Particulars: Human recombinant, [^3H]Diprenorphine.

The next assay concerns Purinergic P2X. In words: off-target screen panel. Particulars: Rabbit urinary bladder, [^3H]α, β-Methylene-ATP. The class given is binding.
For assay [3], the target named is T7, Transporter, Dopamine (DAT) (Homo sapiens, UniProt Q01959).
T7 construct: purchased Eurofins Panlabs Discovery Services (Taiwan)
Nature of the assay: off-target screen panel. The class given is binding. Particulars: Human recombinant, [^125I]RTI-55.

Assay [4] has as its target T8, Transporter, Serotonin (5-Hydroxytryptamine) (SERT) (Homo sapiens, UniProt P31645).
T8 construct: purchased Eurofins Panlabs Discovery Services (Taiwan)
Nature of the assay: off-target screen panel. The assay is classed as binding. The conditions noted are these: Human recombinant, [^3H]Paroxetine.

For another assay, the system named is PDE7. In words: PET imaging in monkeys with [^11C]MTP38. The assay is classed as in vivo, rhesus monkeys. The conditions noted are these: after unlabeled MTP38 iv bolus 0.075 mg/kg + infusion 0.3 mg/kg/h. Here is the method:
Each monkey underwent multiple PET scans with intervals longer than 2 weeks. The monkeys were given an intramuscular injection of 0.04 mg/kg of atropine sulfate at 1.5 h before radioligand injection. They were subsequently anesthetized with an intramuscular injection of ketamine (5 mg/kg) and xylazine (0.5 mg/kg), intubated, and kept anesthetized with 1–2% isoflurane. Heart rate, electrocardiogram, body temperature, blood oxygen saturation level, and end-tidal CO2 were monitored during the PET scan. The monkeys were placed on a bed in a supine position, and the head was fixed at the center of the field of view of a microPET scanner Focus220. A transmission scan was performed for about 20 min using a ^68Ge-^68Ga point source. A 90-min list-mode data acquisition was started simultaneously with intravenous administration of [^11C]MTP38 via a saphenous vein cannula. All list-mode data were sorted into 3D sinograms, which were then Fourier-rebinned into 2D sinograms (frames: 10 s × 6, 30 s × 8, 1 min × 5, 2 min × 10, and 5 min × 12). The images were corrected for attenuation and reconstructed with a filtered back-projection algorithm using a Hanning filter with a cut-off at the Nyquist frequency (0.5 mm^−1).
Along with baseline scans, we carried out blocking PET experiments according to the following pretreatment protocols: (1) unlabeled MTP38 was administered as an intravenous bolus (0.075 mg/kg) at 1 h before radioligand injection followed by continuous infusion at a rate of 0.3 mg/kg/h until the end of the PET scan, and (2) MTP-X (0.3–30 mg/kg) was administered orally at 2 or 6 h before radioligand injection.
PET scans for monkeys at baseline and following pretreatment with unlabeled MTP38, and 3, 10, 30 mg/kg of MTP-X were performed along with arterial blood sampling to obtain a metabolite-corrected input function. In total, 22 arterial blood samples were collected manually with heparinized syringes via a saphenous artery contralateral to the radioligand injection. Sampling was performed at 10, 20, 30, 40, 50, 60, 75, 90, 105, 120, 150, 180, and 210 s and at 4, 5, 10, 20, 30, 45, 60, 75, and 90 min after radioligand injection. Blood samples were then placed on ice and divided into two aliquots, one of which was centrifuged with a refrigerated centrifuge (15,000×g, 3 min, 4 °C) to obtain plasma.
PET images were co-registered onto the individual MR images. ROIs were placed on the prefrontal and medial frontal cortices, hippocampus, amygdala, striatum (caudate + putamen), nucleus accumbens, thalamus, cerebellum (gray matter), and brainstem. TACs in the baseline and blockade experiments were generated for each ROI.
Regional TACs were examined by several analytical methods to calculate the regional total distribution volume (VT), which represents the sum of non-specific and specific radioligand binding. Compartment model (1- or 2-tissue) and Logan’s graphical analyses were employed for describing the radioligand kinetics in the brain. The fractional blood volume was fixed at 0.05. For compartment model analyses, an optimal model was chosen on the basis of Akaike’s information criterion (AIC) and model selection criterion (MSC). For graphical analyses, an equilibration time t* was determined so that by the maximum error from the regression within the linear segment was considered to be 10% for each TAC. Time stability of VT was investigated by truncating the data duration stepwise from 90 min to 30 min. The VT values with or without pretreatment with a blocker were then compared. We also validated the use of the cerebellum as a reference tissue by this comparison, in addition to the autoradiographic findings, in monkey brain slices. The non-displaceable binding potential (BPND) was calculated by the original multilinear reference tissue model (MRTMO). t* was determined in the same manner as Logan’s graphical analysis. […]

Glutamate, NMDA, Glycine, sequence (P35439 394-800 limits assumed): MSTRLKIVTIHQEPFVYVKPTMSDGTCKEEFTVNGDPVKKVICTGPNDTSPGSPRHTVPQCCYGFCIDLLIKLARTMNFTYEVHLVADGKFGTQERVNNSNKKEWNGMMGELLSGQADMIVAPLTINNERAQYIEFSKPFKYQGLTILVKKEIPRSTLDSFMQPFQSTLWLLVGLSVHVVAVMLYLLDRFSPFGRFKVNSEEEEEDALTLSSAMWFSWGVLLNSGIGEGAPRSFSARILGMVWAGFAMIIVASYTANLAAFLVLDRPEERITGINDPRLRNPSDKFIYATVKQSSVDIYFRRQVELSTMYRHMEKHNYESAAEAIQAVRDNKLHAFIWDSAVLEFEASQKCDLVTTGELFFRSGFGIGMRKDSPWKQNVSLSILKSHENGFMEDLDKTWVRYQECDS
T1 sequence (P30542 whole entry): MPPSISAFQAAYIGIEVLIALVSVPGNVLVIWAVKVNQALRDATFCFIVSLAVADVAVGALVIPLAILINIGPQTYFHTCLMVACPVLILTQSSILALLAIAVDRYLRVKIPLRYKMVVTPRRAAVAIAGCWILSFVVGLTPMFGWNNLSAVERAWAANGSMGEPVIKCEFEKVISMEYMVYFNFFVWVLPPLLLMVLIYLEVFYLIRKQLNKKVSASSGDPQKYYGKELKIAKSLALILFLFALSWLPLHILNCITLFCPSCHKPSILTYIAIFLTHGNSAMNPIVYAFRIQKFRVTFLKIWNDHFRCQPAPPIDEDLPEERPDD
T5 sequence (P08172 whole entry): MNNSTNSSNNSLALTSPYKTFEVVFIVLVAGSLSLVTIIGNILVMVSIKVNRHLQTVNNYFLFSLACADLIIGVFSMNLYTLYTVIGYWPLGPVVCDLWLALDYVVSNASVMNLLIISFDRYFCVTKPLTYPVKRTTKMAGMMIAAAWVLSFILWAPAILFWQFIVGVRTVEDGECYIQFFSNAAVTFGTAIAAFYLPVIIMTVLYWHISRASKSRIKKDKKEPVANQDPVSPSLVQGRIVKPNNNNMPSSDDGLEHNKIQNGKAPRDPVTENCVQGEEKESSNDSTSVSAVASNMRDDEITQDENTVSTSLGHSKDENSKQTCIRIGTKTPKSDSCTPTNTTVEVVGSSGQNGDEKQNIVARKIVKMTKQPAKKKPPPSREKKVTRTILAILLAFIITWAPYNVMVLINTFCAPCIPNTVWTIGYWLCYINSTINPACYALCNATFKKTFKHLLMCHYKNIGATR
T7 sequence (Q01959 whole entry): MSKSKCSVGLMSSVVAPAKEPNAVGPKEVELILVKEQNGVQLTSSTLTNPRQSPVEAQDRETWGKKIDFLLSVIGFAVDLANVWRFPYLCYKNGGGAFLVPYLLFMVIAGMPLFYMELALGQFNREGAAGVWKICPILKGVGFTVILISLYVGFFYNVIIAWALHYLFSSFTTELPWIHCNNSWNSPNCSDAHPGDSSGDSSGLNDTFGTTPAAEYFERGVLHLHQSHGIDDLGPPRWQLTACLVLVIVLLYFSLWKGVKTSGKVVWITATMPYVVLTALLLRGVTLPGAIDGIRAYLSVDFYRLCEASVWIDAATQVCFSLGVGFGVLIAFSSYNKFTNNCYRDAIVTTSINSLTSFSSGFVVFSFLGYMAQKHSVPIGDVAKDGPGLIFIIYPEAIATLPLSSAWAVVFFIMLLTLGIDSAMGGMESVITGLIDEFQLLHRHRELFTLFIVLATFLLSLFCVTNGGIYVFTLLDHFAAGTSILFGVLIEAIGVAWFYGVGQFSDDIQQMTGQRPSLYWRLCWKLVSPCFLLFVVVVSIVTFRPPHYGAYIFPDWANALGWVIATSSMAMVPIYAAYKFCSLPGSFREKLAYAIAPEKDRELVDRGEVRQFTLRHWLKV
T4 sequence (P21917 with tags, fused parts or gaps DEL265-296): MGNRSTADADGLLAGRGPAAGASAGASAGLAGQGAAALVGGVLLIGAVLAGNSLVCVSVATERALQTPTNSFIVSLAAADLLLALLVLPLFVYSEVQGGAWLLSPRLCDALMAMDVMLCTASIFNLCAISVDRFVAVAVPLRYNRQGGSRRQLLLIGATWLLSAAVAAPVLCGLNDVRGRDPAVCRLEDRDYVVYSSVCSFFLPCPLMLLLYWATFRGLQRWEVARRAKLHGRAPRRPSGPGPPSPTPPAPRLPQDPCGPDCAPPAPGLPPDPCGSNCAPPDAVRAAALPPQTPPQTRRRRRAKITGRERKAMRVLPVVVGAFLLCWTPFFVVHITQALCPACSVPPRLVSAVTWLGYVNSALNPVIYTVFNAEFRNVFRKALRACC
T6 sequence (P35372 whole entry): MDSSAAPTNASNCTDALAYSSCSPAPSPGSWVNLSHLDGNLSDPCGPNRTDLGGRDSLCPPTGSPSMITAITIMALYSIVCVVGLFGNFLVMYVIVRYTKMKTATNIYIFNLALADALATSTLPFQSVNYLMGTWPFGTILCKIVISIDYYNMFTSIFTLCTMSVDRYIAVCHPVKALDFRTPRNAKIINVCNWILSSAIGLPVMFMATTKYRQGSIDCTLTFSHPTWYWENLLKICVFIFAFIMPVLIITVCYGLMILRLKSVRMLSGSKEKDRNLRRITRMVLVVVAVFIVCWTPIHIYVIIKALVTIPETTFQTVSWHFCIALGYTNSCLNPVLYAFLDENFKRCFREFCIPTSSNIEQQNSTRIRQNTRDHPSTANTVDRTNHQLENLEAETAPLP
T3 sequence (P14416 1-414 isoform P14416-2): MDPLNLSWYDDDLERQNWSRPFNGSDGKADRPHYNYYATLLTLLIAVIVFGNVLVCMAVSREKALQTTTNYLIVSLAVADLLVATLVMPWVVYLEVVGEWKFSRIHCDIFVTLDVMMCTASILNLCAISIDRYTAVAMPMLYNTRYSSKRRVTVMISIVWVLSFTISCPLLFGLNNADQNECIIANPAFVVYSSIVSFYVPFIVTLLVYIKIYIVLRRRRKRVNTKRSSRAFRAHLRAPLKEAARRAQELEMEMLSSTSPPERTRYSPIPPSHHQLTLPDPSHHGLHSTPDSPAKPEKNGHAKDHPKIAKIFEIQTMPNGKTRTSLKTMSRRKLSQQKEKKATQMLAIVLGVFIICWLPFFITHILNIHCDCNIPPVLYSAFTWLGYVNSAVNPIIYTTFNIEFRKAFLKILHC
T8 sequence (P31645 whole entry): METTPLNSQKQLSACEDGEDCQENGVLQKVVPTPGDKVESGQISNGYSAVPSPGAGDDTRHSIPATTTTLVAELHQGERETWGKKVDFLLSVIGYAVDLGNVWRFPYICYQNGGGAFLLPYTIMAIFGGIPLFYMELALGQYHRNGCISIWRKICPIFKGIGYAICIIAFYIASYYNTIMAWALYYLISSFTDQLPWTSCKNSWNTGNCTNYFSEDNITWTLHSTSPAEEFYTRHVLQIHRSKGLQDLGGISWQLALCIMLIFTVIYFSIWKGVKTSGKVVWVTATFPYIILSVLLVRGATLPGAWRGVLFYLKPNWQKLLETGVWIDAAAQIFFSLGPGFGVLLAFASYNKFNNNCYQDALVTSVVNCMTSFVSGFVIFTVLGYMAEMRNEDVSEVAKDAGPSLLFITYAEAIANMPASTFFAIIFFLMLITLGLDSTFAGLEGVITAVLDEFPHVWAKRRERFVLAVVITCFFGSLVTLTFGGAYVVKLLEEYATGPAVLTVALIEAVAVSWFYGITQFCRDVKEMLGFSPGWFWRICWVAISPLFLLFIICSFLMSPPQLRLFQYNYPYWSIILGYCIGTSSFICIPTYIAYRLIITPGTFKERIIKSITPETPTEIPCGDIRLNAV
T2 sequence (P25100 whole entry): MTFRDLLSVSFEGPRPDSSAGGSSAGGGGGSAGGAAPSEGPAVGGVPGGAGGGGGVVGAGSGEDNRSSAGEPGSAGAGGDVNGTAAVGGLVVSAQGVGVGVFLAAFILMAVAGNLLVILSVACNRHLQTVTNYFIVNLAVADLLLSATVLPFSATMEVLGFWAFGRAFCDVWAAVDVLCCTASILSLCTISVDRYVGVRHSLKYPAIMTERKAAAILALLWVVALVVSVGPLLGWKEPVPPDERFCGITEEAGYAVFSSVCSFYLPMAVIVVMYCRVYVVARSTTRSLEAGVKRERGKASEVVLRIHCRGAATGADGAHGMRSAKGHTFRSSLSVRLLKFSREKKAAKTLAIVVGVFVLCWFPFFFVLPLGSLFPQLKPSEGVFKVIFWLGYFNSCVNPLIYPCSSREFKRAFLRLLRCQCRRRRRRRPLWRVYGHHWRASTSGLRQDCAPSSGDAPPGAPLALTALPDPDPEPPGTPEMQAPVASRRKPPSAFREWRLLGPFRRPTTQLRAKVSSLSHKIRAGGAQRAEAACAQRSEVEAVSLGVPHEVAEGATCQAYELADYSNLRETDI

Regarding `C[C@@H]1CC[C@H](C)N(c2nnc3c(N)ncc(C#N)n23)C1` (relative stereo) [MTP38, 8-amino-3-(2S*,5R*-dimethyl-1-piperidyl)-[1,2,4]triazolo[4,3-a]pyrazine-5-carbonitrile], the inhibition at 1 µM was -12% at Adenosine A1; -3% at Adrenergic α1D; 4% on Dopamine D2S; -3% on Dopamine D4.2; -15% against Glutamate, NMDA, Glycine; -9% on Muscarinic M2. The inhibition at 1 µM at Opiate μ (OP3, MOP) was 4%; in [3] it was 22%; in assay [4], -14%. Moreover, the “Inhibition (%) at 1 μM” value in assay [1] is reported as 16%; in [2], 7%; in the assay on Glutamate, NMDA, Agonism it was -3%; in the assay on Purinergic P2X, -3%. The “Striatal BPND of [^11C]MTP38” value with PDE7 (monkey #1) is 0.157; with PDE7 (monkey #2), 0.017.

In general, inhibition refers to the relative decrease from the control value, in per cent.
